Assay results as given in US20190029238A1, “[…]” (William Paterson University Of New Jersey, priority 2015, published 2019).

What was measured:
[1] = tested on: mice subjected to chronic mild stress (CMS); experiment: Alcohol consumption in mice subjected to chronic mild stress (CMS); type: in vivo, mouse; details: for alcohol consumption: mice subjected to chronic mild stress (CMS); for CB2R agonist or antagonist effect on alcohol consumption: normal mice not subjected to CMS
Excerpt: The involvement of brain neuronal CB2Rs in drug abuse and depression is studied by using the conditional ko mice of the invention. Mice preferring alcohol have reduced Cnr2 gene expression in the ventral midbrain whereas the Cnr2 gene expression is unaltered in the ventral midbrain region of mice with little or no preference for alcohol. […] This CB2R agonist or antagonist effect is absent in normal mice that were not subjected to CMS.

CB2R = molecular target: T1, CB2R (Mus musculus, UniProt P47936); experiment: Early and pretreatment with CB2R agonist in stroke; type: in vivo
T1 construct: from tissue; host or cells: living mouse; brain (microglia and neurons) after stroke
T1 sequence (P47936 whole entry): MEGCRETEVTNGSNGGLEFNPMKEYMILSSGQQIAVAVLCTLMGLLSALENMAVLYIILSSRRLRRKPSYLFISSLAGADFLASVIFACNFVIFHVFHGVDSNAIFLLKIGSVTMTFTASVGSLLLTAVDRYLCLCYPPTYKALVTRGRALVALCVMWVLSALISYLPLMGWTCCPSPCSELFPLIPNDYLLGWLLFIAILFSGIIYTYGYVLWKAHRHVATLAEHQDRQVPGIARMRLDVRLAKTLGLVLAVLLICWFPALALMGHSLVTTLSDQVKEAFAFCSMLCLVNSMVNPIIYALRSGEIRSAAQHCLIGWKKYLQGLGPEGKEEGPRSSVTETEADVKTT
Excerpt: Optimal treatment time with CB2R agonist for anti-inflammation and neurodegeneration is studied after stroke. […] Using Cx3crl-Cnr2 and Nestin-Cnr2 pre-clinical mouse models of stroke timed experiments by administering the commercially available CB2R agonist […] at specific time points post infarct at selected doses provides data to evaluate compounds for this use. The CB2R molecular pathways and partners in stroke studied in microglia and neural progenitor cells (NPC) on different post stroke days are evaluated when various compounds are tested. Such microglia and neuron specific CB2Rs-KO stroke behavioral models allow precise mapping of CB2R selective agonist (e.g. JWH133) for potential protective roles in stroke.

Cnr2 gene transcripts = experiment: Expression of Cnr2 gene transcripts in rodents treated with abused substances; type: in vivo; details: treated animals in comparison to controls
BTBR mice = experiment: Behavioral effects of THC in a mouse model of depression (time and number of immobility); type: in vivo; details: BTBR mice (autism-like phenotype) compared to control mice; FIG. 1
Excerpt: FIG. 1. Behavioral effects THC in a mouse model of depression: The time and number of immobility in the test is the index measured.

CCCn1c(C)c(C(=O)c2cccc3ccccc23)c2ccccc21 [JWH 015]
alcohol consumption [1]: enhances alcohol consumption
CB2R agonist or antagonist effect on alcohol consumption [1]: absent

CN1CCCCC1Cn1cc(C(=O)c2cc([N+](=O)[O-])ccc2I)c2ccccc21 (stereo not shown) [AM1241]
brain infarct volumes (CB2R): significantly reduce
neurological deficits (CB2R): significantly reduce

COc1ccc(C(=O)c2c(C)n(CCN3CCOCC3)c3cc(I)ccc23)cc1 [AM630]
alcohol consumption [1]: reduces the stress-induced increase in alcohol consumption
CB2R agonist or antagonist effect on alcohol consumption [1]: absent

CC(=O)Oc1ccc2c3c1O[C@H]1[C@@H](OC(C)=O)C=C[C@H]4[C@@H](C2)N(C)CC[C@@]341 [heroin]
Cnr2 gene transcripts in the brain (Cnr2 gene transcripts): increased Cnr2 gene transcripts

CCCC(C)(C)c1ccc2c(c1)OC(C)(C)[C@@H]1CC=C(C)C[C@@H]21 [JWH133]
brain infarct volumes (CB2R): significantly reduce
neurological deficits (CB2R): significantly reduce

CCCCCc1cc(O)c2c(c1)OC(C)(C)[C@@H]1CCC(C)=C[C@@H]21 [THC, tetrahydrocannabinol]
Behavioral effects of THC: time and number of immobility (BTBR mice): BTBR mice are insensitive to the effects of THC
